This is an account of results in patent US6800101B2, “Deactivatable biocides for hydrocarbonaceous products” (priority 2001, dated 2004).

SMILES strings stand for the structures.

One series relates to alkane degrading culture. Nature of the series: Evaluation of biocides: growth inhibition on FT diesel and ALAD diesel. For microbial growth: key: −: No Growth; +: Growth (White Unless Otherwise Indicated). It counts as cell-based. As to the method:
Growth Media: A standard minimal media containing only inorganic nutrients required for bacterial growth was used. The medium used to supply inorganic micronutrients to the growing culture of alkane degrading organisms consisted of 0.1 g/L MgSO4.7H2O, 0.5 g/L NaNO3, 0.02 millimolar FeSO4 and 0.63 g/L K2HPO4 and 0.19 g/L KH2PO4 to achieve a pH of 7 to 7.3.
Test Conditions: 90 ml of growth media and 10 ml of either FT diesel or low sulfur (ALAD) diesel was added to 250 ml flasks. […] In addition to 2 alkynes, glutaraldehyde (glutaric dialdehyde 50%), was tested. The following summarizes the test conditions:
Sterile control (media boiled prior to adding FT or ALAD, not inoculated)
Inculated control (no inhibitor)
100 ppm inhibitor (on a total test volume basis or 1000 ppm in diesel)
1% inhibitor (on a total test volume basis or 10% in diesel).
After inoculation, the flasks were place on a shaker-table (135 rpm) at room temperature and observed daily.

A further series deals with microbial growth. Kind of series: Evaluation of lower amounts of water. Format: cell-based. Conditions: 100 ppm; 90% Fischer-Tropsch diesel fuel, 10% minimal media; after 16 days. The source says:
In this example, an experiment was done using a lower amount of water. 90% Fischer-Tropsch diesel fuel was mixed with 10% minimal media. One flask was used as a control and the other contained 100 ppm […].

The subject of another series is bacterial inoculum. Kind of series: Neutralization of biocides with other nitrogen compounds. Conditions: for microbial growth: n-C16; for neutralizing 10 ppm of gluteraldehyde: two moles per mole gluteraldehyde. It counts as cell-based. From the text: The different nitrogen-containing compounds evaluated include the following:
For series [1], the system named is Larval Sheepshead Minnow (Cyprinodon variegatus). Nature of the series: in vivo. Conditions: Cyprinodon variegatus (sheepshead minnow), in vivo, 96 h. Format: in vivo. The method, then: […]. EPA/600/4-90/027F Washington D.C. section 2.02, paragraph 1.) conducted at Pacific Eco-Risk Laboratories, Martinez, Calif.
LOEC is the Lowest Observable Effect Concentration and is defined as the minimum concentration where mortality is observed for the test species. […] LC-50, the concentration that will cause mortality of 50% of the organisms tested within 96 h, is a calculated value based on all observations.
The solutions were mixed for 48 hours prior to the start of the bioassays. The solutions were diluted to perform bioassays at starting glutaraldehyde concentrations of 100, 50, 37.5, 25, and 10, 5 mg/L

[2] abbreviates: LA (ALAD) Diesel + 1 Wt %, Day 0.
The mark [3] stands for this setting: LA (ALAD) Diesel + 1 Wt %, Day 1.
Setting [4] is: LA (ALAD) Diesel + 1 Wt %, Day 5.
Setting [5] is: LA (ALAD) Diesel + 1 Wt %, Day 7.
Setting [6] is: LA (ALAD) Diesel + 1 Wt %, Day 8.
The mark [7] stands for this setting: LA (ALAD) Diesel + 1 Wt %, Day 19.
The mark [8] stands for this setting: LA (ALAD) Diesel + 100 ppm, Day 0.
Where [9] appears, read: LA (ALAD) Diesel + 100 ppm, Day 1.
Setting [10] is: LA (ALAD) Diesel + 100 ppm, Day 5.
Setting [11] is: LA (ALAD) Diesel + 100 ppm, Day 7.
Setting [12] is: LA (ALAD) Diesel + 100 ppm, Day 8.
[13] abbreviates: LA (ALAD) Diesel + 100 ppm, Day 19.
Where [14] appears, read: 10 ppm gluteraldehyde + two moles nitrogen compound per mole, day 0.
The mark [15] stands for this setting: 10 ppm gluteraldehyde + two moles nitrogen compound per mole, day 1.
The mark [16] stands for this setting: 10 ppm gluteraldehyde + two moles nitrogen compound per mole, day 2.
The mark [17] stands for this setting: 10 ppm gluteraldehyde + two moles nitrogen compound per mole, day 6.
Setting [18] is: 10 ppm gluteraldehyde + two moles nitrogen compound per mole, day 7.
Where [19] appears, read: 10 ppm gluteraldehyde + two moles nitrogen compound per mole, day 9.
Where [20] appears, read: 10 ppm gluteraldehyde + two moles nitrogen compound per mole, day 13.
Where [21] appears, read: 10 ppm gluteraldehyde + two moles nitrogen compound per mole, day 20.
Where [22] appears, read: control: nitrogen compound without gluteraldehyde, day 0.
Where [23] appears, read: control: nitrogen compound without gluteraldehyde, day 1.
The mark [24] stands for this setting: control: nitrogen compound without gluteraldehyde, day 2.
[25] abbreviates: control: nitrogen compound without gluteraldehyde, day 6.
[26] abbreviates: control: nitrogen compound without gluteraldehyde, day 7.
[27] abbreviates: control: nitrogen compound without gluteraldehyde, day 9.
The mark [28] stands for this setting: control: nitrogen compound without gluteraldehyde, day 13.
The mark [29] stands for this setting: control: nitrogen compound without gluteraldehyde, day 20.

For `C#CCCCC` [H, 1-hexyne], the microbial growth result in the series on alkane degrading culture (FT Diesel + 1 Wt %, Day 0) is on record as “−”; in the series with alkane degrading culture (FT Diesel + 1 Wt %, Day 1) it was “−”; with alkane degrading culture (FT Diesel + 1 Wt %, Day 5), “−”; in the series on alkane degrading culture (FT Diesel + 1 Wt %, Day 7) it was “−”; with alkane degrading culture (FT Diesel + 1 Wt %, Day 8), “−”; with alkane degrading culture (FT Diesel + 1 Wt %, Day 19), “−”. In addition, the microbial growth result in the series on alkane degrading culture (FT Diesel + 100 ppm, Day 0) is recorded as “−”; with alkane degrading culture (FT Diesel + 100 ppm, Day 1) it was “−”; with alkane degrading culture (FT Diesel + 100 ppm, Day 5) it was “+”; in the series with alkane degrading culture (FT Diesel + 100 ppm, Day 7) it was “+”; in the series on alkane degrading culture (FT Diesel + 100 ppm, Day 8) it was “+”; in the series on alkane degrading culture (FT Diesel + 100 ppm, Day 19) it was “+”. The microbial growth entry with alkane degrading culture (setting [2]), in the series with alkane degrading culture (setting [3]), in the series with alkane degrading culture (setting [4]), in the series with alkane degrading culture (setting [5]), in the series with alkane degrading culture (setting [6]) and with alkane degrading culture (setting [7]) was “−” each time. For the same molecule, the microbial growth entry is on record as “−” in the series on alkane degrading culture (setting [8]); “−” in the series on alkane degrading culture (setting [9]); “+” in the series on alkane degrading culture (setting [10]); “+” with alkane degrading culture (setting [11]); “+” in the series with alkane degrading culture (setting [12]); “+” in the series with alkane degrading culture (setting [13]). The microbial growth entry in the series on microbial growth is given as “no growth”.

Regarding `OCCNCCO` [DEA, Diethanolamine], the “toxicity of the nitrogen-containing compound to microbial growth” value (“toxicity” below) in the series on bacterial inoculum is “not excessively toxic”. In addition, the microbial growth result in the series on bacterial inoculum (setting [14]) is “−”; with bacterial inoculum (setting [15]) it was “+”; with bacterial inoculum (setting [16]) it was “+”; in the series on bacterial inoculum (setting [17]) it was “+”; in the series on bacterial inoculum (setting [18]), “+”; with bacterial inoculum (setting [19]), “+”. Further, the microbial growth result with bacterial inoculum (setting [20]) is “+”; in the series on bacterial inoculum (setting [21]), “+”; in the series with bacterial inoculum (setting [22]) it was “−”; in the series on bacterial inoculum (setting [23]) it was “−”; with bacterial inoculum (setting [24]), “−”; in the series with bacterial inoculum (setting [25]) it was “+”. The microbial growth entry in the series on bacterial inoculum (setting [26]), in the series on bacterial inoculum (setting [27]), in the series on bacterial inoculum (setting [28]) and in the series with bacterial inoculum (setting [29]) was “+” throughout. The “neutralizing 10 ppm of gluteraldehyde” value in the series on bacterial inoculum is recorded as “effective”.

Regarding `Nc1ccccc1` [aniline, Aniline], the “toxicity” value in the series with bacterial inoculum is “excessively toxic”. In addition, the microbial growth entry in the series with bacterial inoculum (setting [14]), with bacterial inoculum (setting [15]), with bacterial inoculum (setting [16]), in the series on bacterial inoculum (setting [17]), in the series with bacterial inoculum (setting [18]) and in the series on bacterial inoculum (setting [19]) was “−” each time. For the same molecule, the microbial growth entry in the series with bacterial inoculum (setting [20]) and in the series on bacterial inoculum (setting [21]) was “−” throughout.

For the molecule `NCCO` [MEA, Monoethanolamine], in series [1], the LOEC was found to be 1700 mg/L. This molecule gave an NOEC in series [1] of 1000 mg/L. Further, the “toxicity” value with bacterial inoculum is reported as “not excessively toxic”. Also, the microbial growth result with bacterial inoculum (setting [14]) is recorded as “−”; in the series with bacterial inoculum (setting [15]), “−”; in the series on bacterial inoculum (setting [16]), “−”; in the series on bacterial inoculum (setting [17]), “+”; with bacterial inoculum (setting [18]), “+”; in the series on bacterial inoculum (setting [19]) it was “+”. For the same molecule, the microbial growth entry is “+” in the series with bacterial inoculum (setting [20]); “+” in the series with bacterial inoculum (setting [21]); “−” in the series on bacterial inoculum (setting [22]); “−” in the series with bacterial inoculum (setting [23]); “−” with bacterial inoculum (setting [24]); “−” in the series with bacterial inoculum (setting [25]). The microbial growth result with bacterial inoculum (setting [26]), in the series on bacterial inoculum (setting [27]), with bacterial inoculum (setting [28]) and in the series with bacterial inoculum (setting [29]) was “+” each time. The “neutralizing 10 ppm of gluteraldehyde” value with bacterial inoculum is “effective”.

As for `C#CCO` [P, Propargyl alcohol], the microbial growth entry is “−” in the series with alkane degrading culture (FT Diesel + 1 Wt %, Day 0); “−” in the series with alkane degrading culture (FT Diesel + 1 Wt %, Day 1); “−” in the series with alkane degrading culture (FT Diesel + 1 Wt %, Day 5); “−” in the series with alkane degrading culture (FT Diesel + 1 Wt %, Day 7); “−” with alkane degrading culture (FT Diesel + 1 Wt %, Day 8); “−” in the series on alkane degrading culture (FT Diesel + 1 Wt %, Day 19). For the same molecule, the microbial growth result in the series on alkane degrading culture (FT Diesel + 100 ppm, Day 0) is recorded as “−”; with alkane degrading culture (FT Diesel + 100 ppm, Day 1), “−”; in the series with alkane degrading culture (FT Diesel + 100 ppm, Day 5), “−”; with alkane degrading culture (FT Diesel + 100 ppm, Day 7) it was “+”; in the series on alkane degrading culture (FT Diesel + 100 ppm, Day 8), “+”; in the series with alkane degrading culture (FT Diesel + 100 ppm, Day 19), “+”. The microbial growth result with alkane degrading culture (setting [2]), in the series on alkane degrading culture (setting [3]), with alkane degrading culture (setting [4]), in the series on alkane degrading culture (setting [5]), with alkane degrading culture (setting [6]) and with alkane degrading culture (setting [7]) was “−” in each case. Further, the microbial growth entry in the series with alkane degrading culture (setting [8]) is listed as “−”; in the series with alkane degrading culture (setting [9]), “−”; with alkane degrading culture (setting [10]), “+”; with alkane degrading culture (setting [11]) it was “+”; in the series with alkane degrading culture (setting [12]) it was “+”; with alkane degrading culture (setting [13]), “+”. Also, the colour of growth result in the series on alkane degrading culture (setting [10]), in the series with alkane degrading culture (setting [11]), in the series on alkane degrading culture (setting [12]) and in the series on alkane degrading culture (setting [13]) was “Yellow” each time.

On to `CCNCC` [diethylamine, Diethylamine], for which the “toxicity” value in the series on bacterial inoculum is “not excessively toxic”. For the same molecule, the microbial growth entry in the series with bacterial inoculum (setting [14]) is reported as “−”; with bacterial inoculum (setting [15]), “−”; with bacterial inoculum (setting [16]) it was “−”; with bacterial inoculum (setting [17]) it was “+”; in the series with bacterial inoculum (setting [18]), “+”; in the series with bacterial inoculum (setting [19]), “+”. Further, the microbial growth result in the series with bacterial inoculum (setting [20]) was “+”; in the series on bacterial inoculum (setting [21]), “+”; with bacterial inoculum (setting [22]) it was “−”; in the series with bacterial inoculum (setting [23]), “−”; in the series with bacterial inoculum (setting [24]), “−”; with bacterial inoculum (setting [25]) it was “+”. For the same molecule, the microbial growth entry in the series on bacterial inoculum (setting [26]), with bacterial inoculum (setting [27]), in the series with bacterial inoculum (setting [28]) and in the series on bacterial inoculum (setting [29]) was “+” in each case. Also, the “neutralizing 10 ppm of gluteraldehyde” value with bacterial inoculum is “effective”.
